# Reference: US20180099931A1 (AbbVie S.à.r.l., priority 2016, published 2018)
# Like-named read-outs stand apart in the source and are kept apart here.
# Target: T1, F508delCFTR (Homo sapiens, UniProt P13569, DEL508-508)
# T1 construct: expressed in transfected cells; host or cells: CFBE41o- human lung-derived epithelial cells (CFBE4lo-F508delCFTR-HRP), doxycycline-inducible
# Assay: Cell Surface Expression-Horse Radish Peroxidase (CSE-HRP) Assay;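 on Maximum % activity (with co-corrector): co-corrector and positive control are both the same reference corrector at 2 µM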;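 on Maximum % activity (without co-corrector): percent of the 2 µM on-plate positive control corrector response above DMSO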
# Type: cell-based
# Conditions: for Maximum % activity (with co-corrector): with co-corrector (2 μM); for Maximum % activity (with co-corrector) / Emax: maximum at any tested concentration, normalized to on-plate positive control; for Emax: without co-corrector, read-out: Maximum % activity (without co-corrector)
# [1] = test compound without co-corrector, read-out: EC50 (without co-corrector)
# [2] = with co-corrector (2 μM of 3-[(2R,4R)-4-({[1-(2,2-difluoro-1,3-benzodioxol-5-yl)cyclopropyl]carbonyl}amino)-7-methoxy-3,4-dihydro-2H-chromen-2-yl]benzoic acid), read-out: EC50 (with co-corrector)
# T1 sequence (P13569 with tags, fused parts or gaps DEL508-508): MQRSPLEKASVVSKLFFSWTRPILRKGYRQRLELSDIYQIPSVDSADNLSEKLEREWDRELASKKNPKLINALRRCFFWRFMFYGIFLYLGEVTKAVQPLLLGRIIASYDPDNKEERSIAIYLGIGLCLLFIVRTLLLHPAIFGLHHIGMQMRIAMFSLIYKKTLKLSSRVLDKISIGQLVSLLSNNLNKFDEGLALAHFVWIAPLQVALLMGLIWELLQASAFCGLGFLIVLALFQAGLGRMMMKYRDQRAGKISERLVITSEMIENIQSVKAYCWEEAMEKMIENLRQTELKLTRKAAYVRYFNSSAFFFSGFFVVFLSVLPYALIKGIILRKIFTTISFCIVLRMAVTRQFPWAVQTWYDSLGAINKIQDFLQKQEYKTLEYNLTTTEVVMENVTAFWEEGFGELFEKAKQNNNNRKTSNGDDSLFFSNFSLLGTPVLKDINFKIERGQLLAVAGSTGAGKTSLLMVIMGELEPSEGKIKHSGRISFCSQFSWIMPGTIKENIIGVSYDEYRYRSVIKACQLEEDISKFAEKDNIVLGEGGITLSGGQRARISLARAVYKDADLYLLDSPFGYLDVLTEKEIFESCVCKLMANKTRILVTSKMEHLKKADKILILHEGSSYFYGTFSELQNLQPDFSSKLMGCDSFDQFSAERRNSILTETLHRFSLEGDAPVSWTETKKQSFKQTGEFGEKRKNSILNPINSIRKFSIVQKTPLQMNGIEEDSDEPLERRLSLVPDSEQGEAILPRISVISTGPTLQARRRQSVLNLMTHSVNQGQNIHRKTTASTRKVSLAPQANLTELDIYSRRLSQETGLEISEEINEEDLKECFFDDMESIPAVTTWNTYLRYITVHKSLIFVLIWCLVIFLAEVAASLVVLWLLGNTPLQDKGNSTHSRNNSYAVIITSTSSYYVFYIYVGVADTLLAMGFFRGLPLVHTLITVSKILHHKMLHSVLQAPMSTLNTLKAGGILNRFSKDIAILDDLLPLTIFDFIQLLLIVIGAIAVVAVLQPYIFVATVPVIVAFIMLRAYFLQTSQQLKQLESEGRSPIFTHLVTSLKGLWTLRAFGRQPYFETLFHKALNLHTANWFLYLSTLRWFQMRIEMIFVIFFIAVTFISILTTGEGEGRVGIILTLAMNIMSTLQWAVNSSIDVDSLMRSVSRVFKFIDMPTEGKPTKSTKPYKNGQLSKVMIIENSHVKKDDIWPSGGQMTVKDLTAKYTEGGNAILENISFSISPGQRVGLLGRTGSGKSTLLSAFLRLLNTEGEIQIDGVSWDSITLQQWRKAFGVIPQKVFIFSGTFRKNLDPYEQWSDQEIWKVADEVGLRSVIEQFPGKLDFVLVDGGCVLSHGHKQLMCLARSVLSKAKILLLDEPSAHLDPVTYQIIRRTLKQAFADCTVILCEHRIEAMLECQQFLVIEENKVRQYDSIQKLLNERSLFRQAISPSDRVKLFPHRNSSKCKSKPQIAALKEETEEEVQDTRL
Structure (SMILES),EC50 [1],EC50 [2],Maximum % activity (with co-corrector),Emax
"COc1ccc(C2(C)CCC2)cc1CN[C@H]1[C@H](C(C)(C)C)[C@@H](C(=O)O)N(C(=O)[C@@H]2CCCCO2)[C@H]1c1cccnc1N(C)C [Example 60, (2S,3S,4S,5S)-3-tert-butyl-5-[2-(dimethylamino)pyridin-3-yl]-4-({[2-methoxy-5-(1-methylcyclobutyl)phenyl]methyl}amino)-1-[(2S)-oxane-2-carbonyl]pyrrolidine-2-carboxylic acid]",1000 to 10000 nM,1000 to 10000 nM,+++ (≥350),> 200%
"COc1ccc(C(C)(C)C)cc1CN[C@H]1[C@H](C(C)(C)C)[C@@H](C(=O)O)N(C(=O)OC(C)C)[C@H]1c1ccccc1C(C)C [Example 61, (2S,3S,4S,5S)-3-tert-butyl-4-{[(5-tert-butyl-2-methoxyphenyl)methyl]amino}-1-{[(propan-2-yl)oxy]carbonyl}-5-[2-(propan-2-yl)phenyl]pyrrolidine-2-carboxylic acid]",< 1000 nM,< 1000 nM,+++ (≥350),> 200%
"CC(C)(C)[C@H]1[C@H](NCC2(c3cccc(Cl)c3)CCOCC2)[C@H](c2ccccc2)N(C(=O)C2CCCCC2)[C@@H]1C(=O)O [Example 63, (2S,3S,4S,5S)-3-tert-butyl-4-({[4-(3-chlorophenyl)oxan-4-yl]methyl}amino)-1-(cyclohexanecarbonyl)-5-phenylpyrrolidine-2-carboxylic acid]",1000 to 10000 nM,1000 to 10000 nM,+++ (≥350),< 100%
"COc1ccc(C23CC(C2)C3)cc1CN[C@H]1[C@H](C(C)(C)C)[C@@H](C(=O)O)N(C(=O)OC(C)C)[C@H]1c1cccnc1N(C)C [Example 64, (2S,3S,4S,5S)-4-({[5-(bicyclo[1.1.1]pentan-1-yl)-2-methoxyphenyl]methyl}amino)-3-tert-butyl-5-[2-(dimethylamino)pyridin-3-yl]-1-{[(propan-2-yl)oxy]carbonyl}pyrrolidine-2-carboxylic acid]",1000 to 10000 nM,1000 to 10000 nM,+++ (≥350),> 200%
"COc1cc(C(F)(F)F)ccc1CN[C@H]1[C@H](C(C)(C)C)[C@@H](C(=O)O)N(C(=O)C2C3CCCC32)[C@H]1c1ccccc1 (stereo partly drawn) [Example 65, (2S,3S,4S,5S)-1-(bicyclo[3.1.0]hexane-6-carbonyl)-3-tert-butyl-4-({[2-methoxy-4-(trifluoromethyl)phenyl]methyl}amino)-5-phenylpyrrolidine-2-carboxylic acid]",1000 to 10000 nM,1000 to 10000 nM,+++ (≥350),100 to 200%
"COc1ccc(C(C)(C)C)cc1CN[C@H]1[C@H](C(C)(C)C)[C@@H](C(=O)O)N(C(=O)OC(C)C)[C@H]1c1cccnc1N(C)C [Example 66, (2S,3S,4S,5S)-3-tert-butyl-4-{[(5-tert-butyl-2-methoxyphenyl)methyl]amino}-5-[2-(dimethylamino)pyridin-3-yl]-1-{[(propan-2-yl)oxy]carbonyl}pyrrolidine-2-carboxylic acid]",1000 to 10000 nM,1000 to 10000 nM,+++ (≥350),100 to 200%
"COc1ccc(C23CC(C2)C3)cc1CN[C@H]1[C@H](C(C)(C)C)[C@@H](C(=O)O)N(C(=O)[C@@H]2CCCC(F)(F)C2)[C@H]1c1ccccc1 [Example 67, (2S,3S,4S,5S)-4-({[5-(bicyclo[1.1.1]pentan-1-yl)-2-methoxyphenyl]methyl}amino)-3-tert-butyl-1-[(1R)-3,3-difluorocyclohexane-1-carbonyl]-5-phenylpyrrolidine-2-carboxylic acid]",< 1000 nM,< 1000 nM,+++ (≥350),> 200%
"COc1ncc(C2CCC2)cc1CN[C@H]1[C@H](C(C)(C)C)[C@@H](C(=O)O)N(C(=O)OC(C)C)[C@H]1c1ccccc1C(C)C [Example 68, (2S,3S,4S,5S)-3-tert-butyl-4-{[(5-cyclobutyl-2-methoxypyridin-3-yl)methyl]amino}-1-{[(propan-2-yl)oxy]carbonyl}-5-[2-(propan-2-yl)phenyl]pyrrolidine-2-carboxylic acid]",1000 to 10000 nM,< 1000 nM,+++ (≥350),> 200%
"COc1ncc(C2CCC2)cc1CN[C@H]1[C@H](C(C)(C)C)[C@@H](C(=O)O)N(C(=O)[C@@H]2CCCC(F)(F)C2)[C@H]1c1ccccc1 [Example 69, (2S,3S,4S,5S)-3-tert-butyl-4-{[(5-cyclobutyl-2-methoxypyridin-3-yl)methyl]amino}-1-[(1R)-3,3-difluorocyclohexane-1-carbonyl]-5-phenylpyrrolidine-2-carboxylic acid]",< 1000 nM,< 1000 nM,+++ (≥350),> 200%
"COc1nc(C(C)(C)C)ccc1CN[C@H]1[C@H](C23CC(C2)C3)[C@@H](C(=O)O)N(C(=O)OC(C)C)[C@H]1c1ccccc1 [Example 70, (2S,3S,4S,5S)-3-(bicyclo[1.1.1]pentan-1-yl)-4-{[(6-tert-butyl-2-methoxypyridin-3-yl)methyl]amino}-5-phenyl-1-{[(propan-2-yl)oxy]carbonyl}pyrrolidine-2-carboxylic acid]",1000 to 10000 nM,1000 to 10000 nM,+++ (≥350),100 to 200%
"COc1ccc(C(C)(C)C)cc1CN[C@H]1[C@H](C23CC(C2)C3)[C@@H](C(=O)O)N(C(=O)OC(C)C)[C@H]1c1cccnc1N(C)C [Example 71, (2S,3S,4S,5S)-3-(bicyclo[1.1.1]pentan-1-yl)-4-{[(5-tert-butyl-2-methoxyphenyl)methyl]amino}-5-[2-(dimethylamino)pyridin-3-yl]-1-{[(propan-2-yl)oxy]carbonyl}pyrrolidine-2-carboxylic acid]",1000 to 10000 nM,1000 to 10000 nM,+++ (≥350),> 200%
"COc1ncc(C2CCC2)cc1CN[C@H]1[C@H](C(C)(C)C)[C@@H](C(=O)O)N(C(=O)[C@H]2CCCCO2)[C@H]1c1ccccc1C(C)C [Example 72, (2S,3S,4S,5S)-3-tert-butyl-4-{[(5-cyclobutyl-2-methoxypyridin-3-yl)methyl]amino}-1-[(2R)-oxane-2-carbonyl]-5-[2-(propan-2-yl)phenyl]pyrrolidine-2-carboxylic acid]",1000 to 10000 nM,< 1000 nM,+++ (≥350),> 200%
"COc1ncc(C2CCC2)cc1CN[C@H]1[C@H](C(C)(C)C)[C@@H](C(=O)O)N(C(=O)[C@@H]2CCCCO2)[C@H]1c1ccccc1C(C)C [Example 73, (2S,3S,4S,5S)-3-tert-butyl-4-{[(5-cyclobutyl-2-methoxypyridin-3-yl)methyl]amino}-1-[(2S)-oxane-2-carbonyl]-5-[2-(propan-2-yl)phenyl]pyrrolidine-2-carboxylic acid]",< 1000 nM,< 1000 nM,+++ (≥350),> 200%
